Data as given in ChEMBL document CHEMBL1201862, “PubChem BioAssay data set” (2004).
Calls of active or inactive are those of the source.

What was measured:
[1] = system: CHO-K1; experiment: Counterscreen for antagonists of the orexin 1 receptor (OX1R; HCRTR1): Homogeneous time resolved fluorescence (HTRF)-based cell-based dose response assay to identify antagonists of the parental CHO-K1 cell line. [Related pubchem assays (depositor defined):AID434989, AID435008, AID463079, AID485270, AID492963, AID492964, AID492965, AID493232, AID504699, AID504701]; assay type: functional; conditions: Cricetulus griseus;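 also: potency for inhibition of ATP-stimulated IP1 production as antagonists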
[2] = target: T1, Orexin/Hypocretin receptor type 1 (Homo sapiens, UniProt O43613); experiment: Fluorescence-based cell-based high throughput dose response assay for antagonists of the orexin 1 receptor (OX1R; HCRTR1). [Related pubchem assays (depositor defined):AID434989, AID435008, AID463079, AID485270, AID492963, AID492964, AID492965, AID493232, AID504717, AID504718]; assay type: functional
T1 sequence (O43613 whole entry): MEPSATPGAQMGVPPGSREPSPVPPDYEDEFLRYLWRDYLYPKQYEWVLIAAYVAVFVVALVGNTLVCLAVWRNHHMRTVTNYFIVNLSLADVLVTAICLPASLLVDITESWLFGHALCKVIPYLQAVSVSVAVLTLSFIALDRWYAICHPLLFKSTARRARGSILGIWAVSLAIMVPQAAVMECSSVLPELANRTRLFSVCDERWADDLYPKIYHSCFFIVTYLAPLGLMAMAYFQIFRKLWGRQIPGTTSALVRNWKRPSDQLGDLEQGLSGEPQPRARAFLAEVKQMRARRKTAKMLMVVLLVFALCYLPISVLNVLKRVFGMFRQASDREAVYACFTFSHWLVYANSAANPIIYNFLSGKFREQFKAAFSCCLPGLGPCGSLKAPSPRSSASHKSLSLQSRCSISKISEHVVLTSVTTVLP

[3] = Counterscreen for antagonists of the orexin 1 receptor (OX1R; HCRTR1): Fluorescence-based cell-based high throughput dose response assay to identify antagonists of the parental CHO cell line. [Related pubchem assays (depositor defined):AID434989, AID435008, AID463079, AID485270, AID492963, AID492964, AID492965, AID493232, AID504699, AID504701]; assay type: functional
[4] = target: T1, Orexin/Hypocretin receptor type 1; experiment: Homogeneous Time Resolved Fluorescence (HTRF)-based cell-based high throughput dose response assay for antagonists of the orexin 1 receptor (OX1R; HCRTR1). [Related pubchem assays (depositor defined):AID434989, AID435008, AID463079, AID485270, AID492963, AID492964, AID492965, AID493232, AID504717, AID504718]; assay type: functional
[5] = target: Lysine-specific demethylase 4A (Homo sapiens, UniProt O75164); experiment: inhibition of JMJD2A H3K9me3 demethylation – biochemical, DELFIA europium, cherry-picked samples, selectivity assay for GASC-1 inhibitor project, dose response (AID 488840)
[6] = target: T2, Mannose-6-phosphate isomerase (Homo sapiens, UniProt P34949); experiment: MPI inhibition at elevated mannose 6-phosphate – biochemical, fluorescence intensity, high mannose 6-phosphate, primary screen (AID 1220)
T2 sequence (P34949 whole entry): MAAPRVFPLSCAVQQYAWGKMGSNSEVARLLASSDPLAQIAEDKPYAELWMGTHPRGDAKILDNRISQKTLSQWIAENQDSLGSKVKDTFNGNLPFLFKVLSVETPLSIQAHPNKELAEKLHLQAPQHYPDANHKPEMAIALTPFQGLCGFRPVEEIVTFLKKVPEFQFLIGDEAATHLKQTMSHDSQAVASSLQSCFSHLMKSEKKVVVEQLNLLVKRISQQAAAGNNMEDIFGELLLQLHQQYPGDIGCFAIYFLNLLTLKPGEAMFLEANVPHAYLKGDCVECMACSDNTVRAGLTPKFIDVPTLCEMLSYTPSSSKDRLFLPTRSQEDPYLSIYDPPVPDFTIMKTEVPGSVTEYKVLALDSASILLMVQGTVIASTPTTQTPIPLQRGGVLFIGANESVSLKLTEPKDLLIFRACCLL

[7] = system: HEK293; experiment: cells; conditions: Homo sapiens
[8] = target: T3, Caspase-6 (Homo sapiens, UniProt P55212); experiment: inhibition of CASP6 peptide cleavage – biochemical, VEID-R110 fluorescence, cherry-pick, dose response (AID 720632)
T3 sequence (P55212 whole entry): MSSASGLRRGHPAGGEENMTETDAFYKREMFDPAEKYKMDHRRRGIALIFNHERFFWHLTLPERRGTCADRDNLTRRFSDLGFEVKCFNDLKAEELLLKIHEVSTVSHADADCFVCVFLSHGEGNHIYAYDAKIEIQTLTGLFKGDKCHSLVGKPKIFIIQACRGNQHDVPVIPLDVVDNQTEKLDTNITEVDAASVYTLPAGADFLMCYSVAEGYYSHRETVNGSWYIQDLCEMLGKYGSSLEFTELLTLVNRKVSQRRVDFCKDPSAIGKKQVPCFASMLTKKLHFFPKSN

[9] = viability of HCT116 lacking mutant beta-catenin – cell-based, human colon tumor, dose response (AID 1045); assay type: functional;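 also: HCT116 colon tumor cells with beta catenin knocked out; cells exposed to compound for 60 hours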
[10] = target: T4, Microphthalmia-associated transcription factor (Homo sapiens, UniProt O75030); experiment: reducers of TRPM1 reporter luminescence, concentration series – cell-based, SK-MEL-5, cherry-picked, set 3, MITF inhibitor project, dose response (AID 493073); assay type: functional;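 also: SK-MEL-5 melanoma cells with luciferase driven by the MITF target TRPM1 promoter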
T4 sequence (O75030 whole entry): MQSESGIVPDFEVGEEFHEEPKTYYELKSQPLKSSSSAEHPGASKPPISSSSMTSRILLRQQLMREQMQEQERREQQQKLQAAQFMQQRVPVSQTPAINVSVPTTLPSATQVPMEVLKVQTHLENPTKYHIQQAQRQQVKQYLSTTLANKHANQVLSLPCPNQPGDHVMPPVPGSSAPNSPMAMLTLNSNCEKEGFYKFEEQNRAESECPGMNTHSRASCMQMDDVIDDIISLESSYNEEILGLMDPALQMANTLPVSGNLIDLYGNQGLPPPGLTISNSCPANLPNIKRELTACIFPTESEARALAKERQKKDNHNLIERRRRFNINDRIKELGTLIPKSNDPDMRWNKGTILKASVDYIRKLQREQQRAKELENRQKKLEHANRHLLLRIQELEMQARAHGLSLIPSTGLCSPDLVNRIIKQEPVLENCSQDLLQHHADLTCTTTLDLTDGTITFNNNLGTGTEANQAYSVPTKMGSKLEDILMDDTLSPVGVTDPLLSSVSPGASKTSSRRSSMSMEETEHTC

[11] = system: BJ; experiment: cells; assay type: functional, cell-based; conditions: Homo sapiens
[12] = target: T5, Heat shock factor protein 1 (Mus musculus, UniProt P38532); experiment: enhancement of HSF1-driven luciferase signal – cell-based, NIH3T3, luminescence, dose retest, confirmation (AID 435004); assay type: functional;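 also: stress induced by proteasome inhibitor MG132 added 30 min after compound; luciferase reporter driven by HSF1 response element in NIH3T3 cells; actives raise luminescence as potentiators of the MG132 stress response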
T5 sequence (P38532 whole entry): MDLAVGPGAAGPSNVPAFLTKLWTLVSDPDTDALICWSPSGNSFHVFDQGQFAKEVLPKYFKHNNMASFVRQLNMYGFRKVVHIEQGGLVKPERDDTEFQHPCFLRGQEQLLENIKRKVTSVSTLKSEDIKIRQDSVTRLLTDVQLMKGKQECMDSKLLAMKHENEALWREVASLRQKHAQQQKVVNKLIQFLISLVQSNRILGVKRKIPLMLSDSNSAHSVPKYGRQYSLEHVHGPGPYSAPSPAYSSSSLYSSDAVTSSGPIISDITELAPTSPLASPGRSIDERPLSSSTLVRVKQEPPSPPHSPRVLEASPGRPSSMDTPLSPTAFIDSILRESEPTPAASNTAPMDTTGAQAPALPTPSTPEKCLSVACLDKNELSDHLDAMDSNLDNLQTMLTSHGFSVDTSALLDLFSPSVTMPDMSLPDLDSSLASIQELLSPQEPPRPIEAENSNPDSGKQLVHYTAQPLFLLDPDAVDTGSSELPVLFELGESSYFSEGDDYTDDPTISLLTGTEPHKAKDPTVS

[13] = DRD fibroblast viability loss – cell-based, non-viral oncogenic, luminescence, dose response (AID 1934); assay type: functional; conditions: Homo sapiens
[14] = THP-1 cell cytotoxicity, dose response, cytotoxicity control for non-replicating M. tuberculosis project (AID 489025); assay type: functional
[15] = cells; assay type: functional
[16] = system: HEK293; experiment: cells; conditions: Homo sapiens; remark: listed apart in the source
[17] = viability of PTEN-deleted HCT116 cells – cell-based, HCT116 PTEN knockout, dose response (AID 1047); assay type: functional;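 also: HCT116 colon tumor cells with PTEN knocked out; cells exposed to compound for 60 hours before readout; potency for loss of cell viability measured by luminescence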
[18] = Vero E6 cell cytotoxicity, dose response, cytotoxicity control for non-replicating M. tuberculosis project, secondary assay (AID 492998); assay type: functional, VeroE6; conditions: Vero C1008
[19] = system: Vero; experiment: cells; assay type: functional, cell-based; conditions: Chlorocebus sabaeus
[20] = system: BJ; experiment: BJ-TERT fibroblast viability loss – cell-based, RAS-independent, luminescence, dose response (AID 1933); assay type: functional; conditions: Homo sapiens
[21] = system: BJ; experiment: BJ-TERT-LT-ST fibroblast viability loss – cell-based, RAS-independent, luminescence, dose response (AID 1935); assay type: functional; conditions: Homo sapiens;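 also: BJ fibroblasts immortalized with TERT plus LT and ST oncogenes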
[22] = luciferase reporter signal suppression in cells – H4 neuroglioma cells, luminescence, dose response (AID 1990); assay type: functional, cell-based
[23] = target: Cytochrome P450 2D6 (Homo sapiens, UniProt P10635);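 also: CYP2D6 member of a cytochrome P450 panel assay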
[24] = Luminescence Cell-Based Dose Response HTS to Identify Inhibitors of 5'UTR Stem-Loop Driven Prion Protein mRNA Translation in H4 Neuroglioblastoma Cells. [Related pubchem assays: 1827 (Project Summary), 1813 (Primary HTS)]; assay type: functional
[25] = target: T6, Eukaryotic translation initiation factor 2-alpha kinase 3 (Homo sapiens, UniProt Q9NZJ5); experiment: Dose response cell-based high-throughput screening assay to measure PERK inhibition. [Related pubchem assays: 1416 ]; assay type: functional
T6 sequence (Q9NZJ5 whole entry): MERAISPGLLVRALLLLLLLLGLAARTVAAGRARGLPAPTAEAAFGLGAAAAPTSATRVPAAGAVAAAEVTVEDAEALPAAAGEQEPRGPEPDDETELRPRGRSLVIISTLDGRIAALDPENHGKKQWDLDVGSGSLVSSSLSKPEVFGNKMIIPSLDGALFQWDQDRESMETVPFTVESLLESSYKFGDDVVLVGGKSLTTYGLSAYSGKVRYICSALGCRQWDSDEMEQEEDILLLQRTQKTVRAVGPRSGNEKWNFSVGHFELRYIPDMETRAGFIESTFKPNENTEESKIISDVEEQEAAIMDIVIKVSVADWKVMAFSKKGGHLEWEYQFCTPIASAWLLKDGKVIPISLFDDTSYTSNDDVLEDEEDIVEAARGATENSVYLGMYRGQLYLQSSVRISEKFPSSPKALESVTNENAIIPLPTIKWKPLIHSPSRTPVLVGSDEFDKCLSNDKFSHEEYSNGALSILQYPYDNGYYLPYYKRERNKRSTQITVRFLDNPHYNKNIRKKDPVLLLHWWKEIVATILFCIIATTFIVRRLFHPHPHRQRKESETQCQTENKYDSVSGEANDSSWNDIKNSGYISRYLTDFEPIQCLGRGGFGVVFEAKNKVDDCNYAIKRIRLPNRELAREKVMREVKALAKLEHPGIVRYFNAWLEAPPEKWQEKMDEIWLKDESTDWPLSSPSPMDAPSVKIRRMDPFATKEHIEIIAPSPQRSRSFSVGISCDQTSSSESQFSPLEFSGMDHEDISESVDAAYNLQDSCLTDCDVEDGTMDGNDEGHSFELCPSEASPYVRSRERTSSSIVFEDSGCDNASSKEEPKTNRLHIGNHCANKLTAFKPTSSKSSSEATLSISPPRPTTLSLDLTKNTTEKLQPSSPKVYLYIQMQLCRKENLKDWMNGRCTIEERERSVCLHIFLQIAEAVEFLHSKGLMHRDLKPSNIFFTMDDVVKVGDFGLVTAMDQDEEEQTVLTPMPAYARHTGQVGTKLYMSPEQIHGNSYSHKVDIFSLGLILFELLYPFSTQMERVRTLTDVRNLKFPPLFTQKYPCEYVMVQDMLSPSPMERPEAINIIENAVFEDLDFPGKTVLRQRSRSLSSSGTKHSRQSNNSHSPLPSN

[26] = alpha-synuclein stem-loop luciferase translation blockers – H4 neuroglioma cells, luminescence, confirmation (AID 1988); assay type: functional, cell-based
[27] = target: T6, Eukaryotic translation initiation factor 2-alpha kinase 3; experiment: Counterscreen assay for PERK inhibitors: Dose response cell-based high throughput screening assay to measure inhibition of PERK at 6 hours. [Related pubchem assays: 1522, 1416 ]; assay type: functional
[28] = target: Cytochrome P450 2C19 (Homo sapiens, UniProt P33261); experiment: Cytochrome panel assay with activity outcomes. Panel member name: p450-cyp2c19 Compounds with AC50 equal or less than 10 uM are considered active; assay type: functional
Sequence of Cytochrome P450 2C19 (P33261 whole entry): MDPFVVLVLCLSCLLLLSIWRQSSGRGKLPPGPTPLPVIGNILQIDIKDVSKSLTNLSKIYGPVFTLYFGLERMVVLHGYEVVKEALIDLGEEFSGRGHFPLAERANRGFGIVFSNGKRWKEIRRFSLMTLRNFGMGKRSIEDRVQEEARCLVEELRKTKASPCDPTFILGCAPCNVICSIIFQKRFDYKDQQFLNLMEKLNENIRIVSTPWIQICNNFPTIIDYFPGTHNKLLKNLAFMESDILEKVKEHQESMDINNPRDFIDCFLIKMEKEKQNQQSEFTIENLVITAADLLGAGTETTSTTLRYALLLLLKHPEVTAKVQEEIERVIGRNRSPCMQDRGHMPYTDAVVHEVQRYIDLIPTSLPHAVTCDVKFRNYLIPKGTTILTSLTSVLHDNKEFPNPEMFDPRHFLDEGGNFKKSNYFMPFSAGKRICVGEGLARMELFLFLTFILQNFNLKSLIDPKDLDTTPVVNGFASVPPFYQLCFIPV

Sequence of Cytochrome P450 2D6 (P10635 whole entry): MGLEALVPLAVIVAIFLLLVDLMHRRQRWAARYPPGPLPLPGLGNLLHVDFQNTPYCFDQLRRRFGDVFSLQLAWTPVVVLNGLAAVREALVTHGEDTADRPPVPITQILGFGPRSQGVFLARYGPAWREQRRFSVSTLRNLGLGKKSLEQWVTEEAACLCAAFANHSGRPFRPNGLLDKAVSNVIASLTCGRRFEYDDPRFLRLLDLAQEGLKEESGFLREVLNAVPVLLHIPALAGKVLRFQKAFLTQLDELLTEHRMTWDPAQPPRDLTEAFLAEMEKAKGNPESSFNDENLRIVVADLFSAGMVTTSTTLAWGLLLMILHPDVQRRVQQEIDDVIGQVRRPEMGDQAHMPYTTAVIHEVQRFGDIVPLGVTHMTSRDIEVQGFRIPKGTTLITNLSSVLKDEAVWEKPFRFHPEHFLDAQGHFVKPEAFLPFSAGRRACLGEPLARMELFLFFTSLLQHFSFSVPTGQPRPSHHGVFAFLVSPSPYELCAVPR
Sequence of Lysine-specific demethylase 4A (O75164 whole entry): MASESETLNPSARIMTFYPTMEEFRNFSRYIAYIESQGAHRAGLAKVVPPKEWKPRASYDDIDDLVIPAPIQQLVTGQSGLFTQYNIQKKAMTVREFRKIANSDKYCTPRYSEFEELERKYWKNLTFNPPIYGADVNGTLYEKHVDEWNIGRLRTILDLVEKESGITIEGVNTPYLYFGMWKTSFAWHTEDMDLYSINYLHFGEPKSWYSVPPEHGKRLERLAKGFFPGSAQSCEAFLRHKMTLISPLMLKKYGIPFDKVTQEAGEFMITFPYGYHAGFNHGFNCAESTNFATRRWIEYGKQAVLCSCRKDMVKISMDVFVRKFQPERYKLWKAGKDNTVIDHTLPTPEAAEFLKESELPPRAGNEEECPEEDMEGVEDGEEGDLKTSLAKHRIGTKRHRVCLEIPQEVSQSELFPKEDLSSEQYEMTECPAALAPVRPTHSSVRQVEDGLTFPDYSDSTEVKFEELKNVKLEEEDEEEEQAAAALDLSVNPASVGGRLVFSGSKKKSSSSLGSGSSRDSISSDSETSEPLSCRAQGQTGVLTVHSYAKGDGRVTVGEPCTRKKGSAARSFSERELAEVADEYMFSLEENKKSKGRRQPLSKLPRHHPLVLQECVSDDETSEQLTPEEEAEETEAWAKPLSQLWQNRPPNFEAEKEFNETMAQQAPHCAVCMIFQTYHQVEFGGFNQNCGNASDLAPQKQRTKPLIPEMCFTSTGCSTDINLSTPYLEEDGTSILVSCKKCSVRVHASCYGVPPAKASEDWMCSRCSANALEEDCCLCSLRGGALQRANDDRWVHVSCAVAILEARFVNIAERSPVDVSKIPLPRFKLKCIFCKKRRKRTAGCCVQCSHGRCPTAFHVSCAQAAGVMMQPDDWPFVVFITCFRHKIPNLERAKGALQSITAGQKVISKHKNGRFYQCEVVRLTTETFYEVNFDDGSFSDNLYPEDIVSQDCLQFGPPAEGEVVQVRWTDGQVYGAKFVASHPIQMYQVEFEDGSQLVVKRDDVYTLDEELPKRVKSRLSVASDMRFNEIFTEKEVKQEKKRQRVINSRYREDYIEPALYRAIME

## Cc1ccc(N(CC(=O)NCCc2ccc(Cl)cc2)S(=O)(=O)c2c(C)noc2C)cc1
[1]
  IC50: > 66.2 µM (inactive)
[2]
  IC50: 2.87 µM (active)
[3]
  IC50: > 49.8 µM (inactive)
[4]
  IC50: 0.585 µM (active)

## CC(=O)Nc1ccc2c(c1)C(C)(C)C(C)N2C (stereo unspecified)
[5]
  AC50: 17.9 µM (active)
[6]
  IC50: > 50 µM (not active)

## O=C1c2cc([N+](=O)[O-])cc3cc([N+](=O)[O-])cc(c23)C(=O)N1c1ccccn1
[7]
  EC50: > 59.7 µM (inactive)
[8]
  AC50: 15.3 µM (active)
[9]
  EC50: 7.76 µM (active)
[10]
  AC50: 7.92 µM (active)
[11]
  EC50: 54.8 µM (active)
[12]
  EC50: 13.7 µM (active)
[13]
  EC50: 11.2 µM (active)
[14]
  CC50: 17.5 µM (active)
[15]
  IC50: 3.43 µM (active)
[16]
  EC50: > 59.7 µM (inactive)
[17]
  EC50: 9.92 µM (active)
[18]
  CC50: 15.2 µM (active)
[19]
  IC50: 16.3 µM (active)
[20]
  EC50: 37.1 µM (active)
[21]
  EC50: > 150 µM (inconclusive)

## CC(C)n1nnnc1-c1cc(Cl)cc(Cl)c1
[22]
  EC50: > 120 µM (not active)
[23]
  AC50: inconclusive
[24]
  EC50: 10.2 µM (active)
[25]
  EC50: > 55.7 µM (not active)
[26]
  EC50: > 120 µM (not active)
[27]
  EC50: > 55.7 µM (not active)

## C[N+](C)(N)CCC[N+](C)(C)N
[28]
  AC50: inconclusive
[23]
  AC50: inconclusive

## CCc1nn(C(CC)C(=O)NCCc2ccc(OC)cc2OC)c(=O)c2cc3occc3n12 (stereo unspecified)
[7]
  EC50: > 59.6 µM (inactive)
[16]
  EC50: > 59.6 µM (inactive)
